The assay addresses T1, human norepinephrine transporter (hNET) (Homo sapiens, UniProt P23975).
T1 construct: expressed in transfected cells
Description: fluorescent neurotransmitter transporter uptake assay (plate reader). The format is cell-based. The note with it: HEK-hNET-hVMAT2-mCherry cells; compounds selected for follow-up assays. The protocol: Cell line: All screening was done in a line of human embryonic kidney cells stably expressing the human norepinephrine transporter and the vesicular monoamine transporter 2 (HEK-hNET- -hVMAT2-mCherry). Human VMAT2 expression, in addition to hNET, more fully recapitulates a neuronal phenotype in cell culture. Cells were imaged and fully characterized for functionality (Figure 1). […] Screening: Synthesized compounds were tested for interaction with NET via a three-step process. First, all compounds were tested using a commercially available fluorescent assay (neurotransmitter transport uptake kit, Molecular Devices, San Jose, CA, USA) for the assessment of plasmalemmal monoamine transport ability. Cells were plated in poly-D-lysine (PDL)-coated 96-well plates (Corning Inc., Corning, NY, USA) to 100% confluence. The following day, cell media (DMEM, 10% fetal bovine serum, 1% penicillin/streptomycin) was removed, and experimental media (Hank’s balanced salt solution, Sigma-Aldrich) was added. […] Plates were incubated for 1 h, then read on a fluorescent plate reader (Thermo Fisher). Experiments were conducted in triplicate. […] Cells were plated to confluence in 48-well PDL-coated plates the day prior to the experiment. For experiments, media was removed, cells were rinsed with phosphate buffered saline (PBS), and incubated with or without compounds or desipramine (10 nM to 10 μM, non-specific uptake measured by addition of 100 μM desipramine) for ten minutes at 37 °C. Dopamine (1 μM total concentration with 200 nM ^3H-dopamine tracer) was added and uptake proceeded for 10 min at 37 °C. Cells were then rinsed three times with PBS, lysed with 0.1 N NaOH, and measured via liquid scintillation counting (Beckman Coulter, Brea, CA, USA). Finally, each selected compound was visualized with high-content imaging using the Array Scan VTI HCS (Cellomics). Cells were seeded to 80% confluence in PDL-coated, glass-bottom 96-well plates. Media was removed and DMEM without phenol red with or without compounds or desipramine (10 nM to 10 μM) was added. Following a one-hour incubation, cells were imaged. Forty-nine contiguous fields per well were taken and total fluorescence in the green channel was reported.
Figure 1 Plate reader-based fluorescent assay using human NET in a validation assay of the scree-ning strategy using the known NET inhibitor desipramine as a positive control. […] (C) Finally, uptake was visualized using high content imaging with the Array Scan VTI HCS (Cellomics, Thermo Fisher Scientific, Waltham, MA, USA) to visualize nuclei (stained with DAPI), VMAT2-mCherry, and dye. All experiments were conducted in triplicate and analyzed with nonlinear regression analysis in GraphPad Prism (GraphPad Software, La Jolla, CA, USA). Scale: […].
T1 sequence (P23975 whole entry): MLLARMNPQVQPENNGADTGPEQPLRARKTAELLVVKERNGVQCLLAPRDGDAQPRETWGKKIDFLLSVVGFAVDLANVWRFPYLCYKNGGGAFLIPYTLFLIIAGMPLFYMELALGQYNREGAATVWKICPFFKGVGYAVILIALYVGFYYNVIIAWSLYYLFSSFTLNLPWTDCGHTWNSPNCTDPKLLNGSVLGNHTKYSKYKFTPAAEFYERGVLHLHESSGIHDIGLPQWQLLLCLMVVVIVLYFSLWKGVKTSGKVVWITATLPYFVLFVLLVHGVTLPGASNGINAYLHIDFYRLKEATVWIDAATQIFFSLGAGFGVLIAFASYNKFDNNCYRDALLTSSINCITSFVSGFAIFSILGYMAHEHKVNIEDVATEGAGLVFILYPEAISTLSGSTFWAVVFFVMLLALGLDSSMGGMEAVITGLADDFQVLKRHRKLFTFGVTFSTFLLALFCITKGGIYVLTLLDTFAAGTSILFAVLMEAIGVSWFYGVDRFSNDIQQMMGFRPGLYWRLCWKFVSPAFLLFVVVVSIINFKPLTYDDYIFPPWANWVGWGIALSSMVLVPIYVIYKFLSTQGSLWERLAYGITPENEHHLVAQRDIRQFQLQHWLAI
Take `C=CCc1cc(Cc2cccc(CC=C)c2OC)ccc1OC` [Compound C4a, 3,3′-Diallyl-2,4′-dimethoxy-diphenyl-methan]: the “modulation of transport activity in the fluorescent screen (ranking)” value (“modulation of transport activity” below) is given as “most potent modulators of transport activity”.

Turning to `C=CCc1cc(NC(C)=O)c(O)c(-c2ccc(OC)c(CC=C)c2)c1` [Compound H8], the “modulation of transport activity” value was “most potent modulators of transport activity”.

Take `C=CCc1ccc(O)c(-c2ccc(OC)c(CC=C)c2)c1` [Compound H11, 4′-O-methylhonokiol]: the “modulation of transport activity” value is recorded as “most potent modulators of transport activity”.

With `C=CCc1ccc(OC)c(-c2ccc(OC)c(CC=C)c2)c1` [Compound H16], the “modulation of transport activity” value is “most potent modulators of transport activity”.

As for `CCCc1ccc(OC)c(-c2ccc(OC)c(CCC)c2)c1` [Compound H20], the “modulation of transport activity” value is reported as “most potent modulators of transport activity”.

`CC(C)(C)c1ccc(O)c(-c2cc(C(C)(C)C)ccc2O)c1` [Compound M6]: the “modulation of transport activity” value is “most potent modulators of transport activity”.
